For assay [1], the target named is T1, histidine-tagged P2U receptor (P2HIS) (Mus musculus, UniProt P35383). Briefly: cytoplasmic free calcium in K562 cells stably expressing histidine-tagged P2U receptor (P2HIS). It counts as cell-based, murine. Here is the method:
Cytoplasmic Free Calcium Measurements. Cells were sedimented at 200×g for 5 min at room temperature and washed once with 10 ml of Hepes-bufferedsaline (20 mM Hepes, pH 7.4, 120 mM NaCl, 5 mM KCl, 1 mM MgCl2, and 1 mM CaCl2). Washed cells were suspended in Hepes-buffered saline at 5×10^5 cells/ml, and stored (for up to 4 h) at 37° C. The concentration of cytoplasmic free calcium, [Ca^2+ ]i, was measured by dual-excitation spectrofluorometric analysis of cells loaded with fura-2, a fluorescent probe for calcium.
Construction and Purification of the Histidine-tagged P2U Receptor (P2HIS). To produce P2HIS, 70 pmoles of the primers CGCACCATTGCCTTGGTAC (SEQ ID NO:3)(which contains a BstXI site) and […] (SEQ ID NO:4) (which contains an EcoRV site, stop codon, and the hexahistidine coding sequence) were incubated with 50 ng of pP2R, 20 nmoles of each dNTP, 1X reaction buffer (20 mM Tris-HCl, pH 8.2, 10 mM KCl, 6 mM (NH4)2 SO4, 1.5 mM MgCl2, and 0.1% Triton X-100), and H2 O to bring the reaction mixture to a 100 μl volume. […] The reaction mixture was overlayed with 50 μl of mineral oil and subjected to 30 PCR cycles (95° C. for 1.5 min, 55° C. for 1.5 min, and 72° C. for 2 min). The PCR product, a single 400 bp band, was subcloned into the unique BstXI-EcoRV restriction site of pP2R to generate pP2HIS. […]

Assay [2] addresses T1, histidine-tagged P2U receptor (P2HIS). Briefly: PIP2 in K562 cells stably expressing P2HIS. The format is cell-based, murine. Here is the method:
Construction and Purification of the Histidine-tagged P2U Receptor (P2HIS). To produce P2HIS, 70 pmoles of the primers CGCACCATTGCCTTGGTAC (SEQ ID NO:3)(which contains a BstXI site) and […] (SEQ ID NO:4) (which contains an EcoRV site, stop codon, and the hexahistidine coding sequence) were incubated with 50 ng of pP2R, 20 nmoles of each dNTP, 1X reaction buffer (20 mM Tris-HCl, pH 8.2, 10 mM KCl, 6 mM (NH4)2 SO4, 1.5 mM MgCl2, and 0.1% Triton X-100), and H2 O to bring the reaction mixture to a 100 μl volume. […] The reaction mixture was overlayed with 50 μl of mineral oil and subjected to 30 PCR cycles (95° C. for 1.5 min, 55° C. for 1.5 min, and 72° C. for 2 min). The PCR product, a single 400 bp band, was subcloned into the unique BstXI-EcoRV restriction site of pP2R to generate pP2HIS. K562 cells with stable P2HIS expression were produced by subcloning the HindIII-NotI restriction fragment of pP2HIS encoding the histidine-taged P2U receptor cDNA into pRC/CMV and transfecting K562 cells as described for pP2R1. The composition of pP2HIS was verified by DNA sequence analysis.

T1 sequence (P35383 whole entry): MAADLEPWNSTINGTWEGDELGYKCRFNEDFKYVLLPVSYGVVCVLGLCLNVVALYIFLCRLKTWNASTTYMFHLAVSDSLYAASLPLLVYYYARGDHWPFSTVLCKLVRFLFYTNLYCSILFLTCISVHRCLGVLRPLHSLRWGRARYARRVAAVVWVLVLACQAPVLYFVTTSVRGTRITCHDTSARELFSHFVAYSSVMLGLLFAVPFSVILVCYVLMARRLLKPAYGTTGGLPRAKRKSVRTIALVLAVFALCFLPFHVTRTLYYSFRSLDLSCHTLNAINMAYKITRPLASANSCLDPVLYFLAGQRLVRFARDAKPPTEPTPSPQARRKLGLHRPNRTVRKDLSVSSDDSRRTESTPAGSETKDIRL

As for `Nc1ncnc2c1ncn2[C@@H]1O[C@H](COP(=O)(O)OP(=O)(O)OP(=O)(O)O)[C@@H](O)[C@H]1O` [ATP], in assay [1], the “[Ca^2+ ]i in K562 cells stably expressing P2HIS” value is “increase in [Ca^2+ ]i”. For the same molecule, in assay [2], the “PIP2 in K562 cells stably expressing P2HIS” value is given as “decrease in PIP2”.
Take `O=c1ccn([C@@H]2O[C@H](COP(=O)(O)OP(=O)(O)OP(=O)(O)O)[C@@H](O)[C@H]2O)c(=O)[nH]1` [UTP]: the “[Ca^2+ ]i in K562 cells stably expressing P2HIS” value in assay [1] was “increase in [Ca^2+ ]i”. The “PIP2 in K562 cells stably expressing P2HIS” value in assay [2] is “decrease in PIP2”.
